Source: doi:10.1101/427617v2 (bioRxiv, 2019)

Columns and labels:
[1] = system: dural lymphatic cells; assay: transferrin-AlexaFluor647 uptake, live cell imaging; format: cell-based, rat
[2] = system: dural lymphatic cells; assay: pHrodo-dextran uptake, live cell imaging; format: cell-based, rat; conditions: 10kD pHrodo-dextran, Dyngo4a at 100-200μM, Fig. 12B, 12D

Compound	Effect of inhibitor on transferrin-AlexaFluor647 uptake ([1]; same concentration (100-200μM), Fig. 12C)	Effect of inhibitor on pHrodo dextran uptake [2]	Uptake of labeled transferrin by lymphatic cells [1]
O=C(N/N=C/c1cc(O)c(O)cc1O)c1cc2ccccc2cc1O [Dyngo4a]	specifically blocked	blocked in dose dependent fashion	
CCCCC[C@@H](O)[C@H]1C(=O)O[C@H](C)[C@@H](O)/C=C/C=C/C=C/C=C/C=C(\C)[C@@H](O)C[C@H](O)C[C@H](O)C[C@H](O)C[C@H](O)C[C@H](O)C[C@@H]1O [filipin]		blocked uptake	
transferrin-AlexaFluor647: labeled transferrin used to test clathrin-dependent endocytosis			avidly took up
